Values after ≈ are worked out from the molar mass of the structure shown. Like-named read-outs stand apart in the source and are kept apart here.
Assays:
[1] = test system: Staphylococcus epidermidis ATCC 35984; experiment: MIC, broth microdilution, MDR/BPSE reference strain; assay type: cell-based
Description: These strains included susceptible, multidrug-resistant, and biofilm-producing strains of S. epidermidis and S. aureus (MSSE, MDR/BPSE, and MDR/BPSA, respectively). The cornerstone antibiotic linezolid served as a positive control (Table 1). The impact of structural modifications at the aryloxy fragment and the aromatic moiety bound to the propyl linker on the inhibitory activity was initially investigated. […] Further optimization focused on evaluating the impact of the type of substituent and its position on the arylsulfonamide fragment’s activity.
(§1) 2 Biological assay protocols
(§2) Microbiological tests were carried out under aseptic conditions in a laminar chamber of the 2nd […]
(§3) (BioTectum 1.2, Alchem Poland). The assessment of antimicrobial activity was carried out for final compounds in the form of free bases, soluble in DMSO (Merck, Germany), at the initial […]
(§4) concentration of 1 mg/mL. […]
were provided by Cayman Chemical, USA.
The activity of all newly synthesized compounds was tested in vitro on a panel of selected reference strains from the American Type Culture Collection (ATCC) of Gram-positive […]
(§5) 2.2 Effect of evaluated compounds on planktonic cells
(§6) The susceptibility of three reference bacterial strains (Staphylococcus epidermidis ATCC […]
(§7) Table S1) and 81 clinical MDR S. epidermidis (Table S2) to the tested compounds was assessed by determining the MIC value (Minimal Inhibitory Concentration) by microdilution in a liquid medium in 96-well flat-bottom cell culture plates (Nest Biotechnology Scientific, USA). The antibacterial properties of the compo unds were tested in the concentration range from 50 µg/mL to 0.1 µg/mL by making a series of double dilutions of the compound in liquid Mueller -Hinton II Broth Cation Adjusted (MHB II, BBL TM, USA) according to the European Committee on […]
(§8) Antimicrobial Susceptibility Testing guidelines (EUCAST).2,3 The determinations were performed twice. The MIC50 and MIC90 values were determined for each of the tested

[2] = test system: clinical MDR Staphylococcus epidermidis isolates; experiment: MIC, broth microdilution, 81 clinical MDR strains; assay type: cell-based; details: Staphylococcus epidermidis
Method: as §1, §2, §3, §4
were provided by Cayman Chemical, USA. […]
The antibacterial activity of selected compounds was also tested on a panel of 81 unrelated, multidrug -resistant clinical strains of Staphylococcus epidermidis from the own collection of the Department of Pharmaceutical Microbiology of the Jagiellonian University Medical College.
as §5, §6, §7, §8

[3] = test system: Staphylococcus aureus ATCC BAA-976; experiment: MIC, broth microdilution, MDR/BPSA reference strain; assay type: cell-based; details: ATCCBAA976; Staphylococcus aureus ATCC BAA-976; read-out: MIC MDR/BPSA
Procedure, shortened: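 Compounds tested as free bases dissolved in DMSO (1 mg/mL stock); determinations done twice; linezolid as positive control.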

[4] = test system: horse red blood cells; experiment: Hemolytic activity assay
Method: 2.3.3 Hemolytic activity assay
The hemolytic properties of tested compound were evaluated according to previously reported procedure.6 Defibrinated horse red blood cells purchased from Thermo Fisher Scientific (Germany) were washed with PBS (3000 rpm, 10 min at 4 °C) for three times followed by PBS dilution to obtain a 8% suspension. Then, 100 μL of the resulting suspensions […]
were treated with 100 μL of tested compound at the final concentration of 200 μM, and incubated at 37 °C for 1 h. Triton X-100 (2%) and PBS were used as positive and negative controls, respectively. After centrifugation at 3000 rpm for 3 min, 100 μL of the supernatants were transferred to a 96 well microtiter plate and the hemoglobin release was determined in a SpectraMax iD3 reader (Molecular Devices) by absorption at 540 nm. […]

O=S(=O)(NC1CCN(CCC(Oc2ccc(C(F)(F)F)cc2)c2ccccc2)CC1)c1cccc(Cl)c1 (centres unmarked) [Compound 12]
increase of activity against MDR/BPSE compared to hit I [1]: up to 8 fold | MIC ([1]; Staphylococcus epidermidis, ATCC35984, read-out: MIC MDR/BPSE, Staphylococcus epidermidis ATCC 35984): ≤ 0.8 µg/mL | MIC ([2]; clinical strain 1 (Table S2), read-out: MIC): 0.2 µg/mL (≈ 0.362 µM) | MIC ([2]; clinical strain 2 (Table S2), read-out: MIC): 1.6 µg/mL (≈ 2.89 µM) | MIC ([2]; clinical strain 3 (Table S2), read-out: MIC): 0.8 µg/mL (≈ 1.45 µM) | MIC ([2]; clinical strain 4 (Table S2), read-out: MIC): 0.8 µg/mL (≈ 1.45 µM) | MIC ([2]; clinical strain 5 (Table S2), read-out: MIC): 1.6 µg/mL (≈ 2.89 µM) | MIC ([2]; clinical strain 6 (Table S2), read-out: MIC): 3.12 µg/mL (≈ 5.65 µM) | MIC ([2]; clinical strain 7 (Table S2), read-out: MIC): 6.25 µg/mL (≈ 11.3 µM) | MIC ([2]; clinical strain 8 (Table S2), read-out: MIC): 1.6 µg/mL (≈ 2.89 µM) | MIC ([2]; clinical strain 9 (Table S2), read-out: MIC): 3.12 µg/mL (≈ 5.65 µM) | MIC ([2]; clinical strain 10 (Table S2), read-out: MIC): 6.25 µg/mL (≈ 11.3 µM) | MIC ([2]; clinical strain 11 (Table S2), read-out: MIC): 6.25 µg/mL (≈ 11.3 µM) | MIC ([2]; clinical strain 12 (Table S2), read-out: MIC): 6.25 µg/mL (≈ 11.3 µM) | MIC ([2]; clinical strain 13 (Table S2), read-out: MIC): 6.25 µg/mL (≈ 11.3 µM) | MIC ([2]; clinical strain 14 (Table S2), read-out: MIC): 50 µg/mL (≈ 90.4 µM) | MIC ([2]; clinical strain 15 (Table S2), read-out: MIC): 3.12 µg/mL (≈ 5.65 µM) | MIC ([2]; clinical strain 16 (Table S2), read-out: MIC): 3.12 µg/mL (≈ 5.65 µM) | MIC ([2]; clinical strain 17 (Table S2), read-out: MIC): 3.12 µg/mL (≈ 5.65 µM) | MIC ([2]; clinical strain 18 (Table S2), read-out: MIC): 3.12 µg/mL (≈ 5.65 µM) | MIC ([2]; clinical strain 19 (Table S2), read-out: MIC): 3.12 µg/mL (≈ 5.65 µM) | MIC ([2]; clinical strain 20 (Table S2), read-out: MIC): 6.25 µg/mL (≈ 11.3 µM) | MIC ([2]; clinical strain 21 (Table S2), read-out: MIC): 6.25 µg/mL (≈ 11.3 µM) | MIC ([2]; clinical strain 22 (Table S2), read-out: MIC): 12.5 µg/mL (≈ 22.6 µM) | MIC ([2]; clinical strain 23 (Table S2), read-out: MIC): 12.5 µg/mL (≈ 22.6 µM) | MIC ([2]; clinical strain 24 (Table S2), read-out: MIC): 12.5 µg/mL (≈ 22.6 µM) | MIC ([2]; clinical strain 25 (Table S2), read-out: MIC): 12.5 µg/mL (≈ 22.6 µM) | MIC ([2]; clinical strain 26 (Table S2), read-out: MIC): 12.5 µg/mL (≈ 22.6 µM) | MIC ([2]; clinical strain 27 (Table S2), read-out: MIC): 25 µg/mL (≈ 45.2 µM) | MIC ([2]; clinical strain 28 (Table S2), read-out: MIC): 12.5 µg/mL (≈ 22.6 µM) | MIC ([2]; clinical strain 29 (Table S2), read-out: MIC): 12.5 µg/mL (≈ 22.6 µM) | MIC ([2]; clinical strain 30 (Table S2), read-out: MIC): 25 µg/mL (≈ 45.2 µM) | MIC ([2]; clinical strain 31 (Table S2), read-out: MIC): 50 µg/mL (≈ 90.4 µM) | MIC ([2]; clinical strain 32 (Table S2), read-out: MIC): 50 µg/mL (≈ 90.4 µM) | MIC ([2]; clinical strain 33 (Table S2), read-out: MIC): 25 µg/mL (≈ 45.2 µM) | MIC ([2]; clinical strain 34 (Table S2), read-out: MIC): 50 µg/mL (≈ 90.4 µM) | MIC ([2]; clinical strain 35 (Table S2), read-out: MIC): 50 µg/mL (≈ 90.4 µM) | MIC ([2]; clinical strain 36 (Table S2), read-out: MIC): 50 µg/mL (≈ 90.4 µM) | MIC ([2]; clinical strain 37 (Table S2), read-out: MIC): 50 µg/mL (≈ 90.4 µM) | MIC ([2]; clinical strain 38 (Table S2), read-out: MIC): 50 µg/mL (≈ 90.4 µM) | MIC ([2]; clinical strain 39 (Table S2), read-out: MIC): 50 µg/mL (≈ 90.4 µM) | MIC ([2]; clinical strain 40 (Table S2), read-out: MIC): 50 µg/mL (≈ 90.4 µM) | MIC ([2]; clinical strain 41 (Table S2), read-out: MIC): 12.5 µg/mL (≈ 22.6 µM) | MIC ([2]; clinical strain 42 (Table S2), read-out: MIC): 50 µg/mL (≈ 90.4 µM) | MIC ([2]; clinical strain 43 (Table S2), read-out: MIC): 25 µg/mL (≈ 45.2 µM) | MIC ([2]; clinical strain 44 (Table S2), read-out: MIC): 50 µg/mL (≈ 90.4 µM) | MIC ([2]; clinical strain 45 (Table S2), read-out: MIC): 50 µg/mL (≈ 90.4 µM) | MIC ([2]; clinical strain 46 (Table S2), read-out: MIC): 50 µg/mL (≈ 90.4 µM) | MIC ([2]; clinical strain 47 (Table S2), read-out: MIC): 50 µg/mL (≈ 90.4 µM) | MIC ([2]; clinical strain 48 (Table S2), read-out: MIC): 3.12 µg/mL (≈ 5.65 µM) | MIC ([2]; clinical strain 49 (Table S2), read-out: MIC): 0.1 µg/mL (≈ 0.181 µM) | MIC ([2]; clinical strain 50 (Table S2), read-out: MIC): 50 µg/mL (≈ 90.4 µM) | MIC ([2]; clinical strain 51 (Table S2), read-out: MIC): 50 µg/mL (≈ 90.4 µM) | MIC ([2]; clinical strain 52 (Table S2), read-out: MIC): 3.12 µg/mL (≈ 5.65 µM) | MIC ([2]; clinical strain 53 (Table S2), read-out: MIC): 6.25 µg/mL (≈ 11.3 µM) | MIC ([2]; clinical strain 54 (Table S2), read-out: MIC): 50 µg/mL (≈ 90.4 µM) | MIC ([2]; clinical strain 55 (Table S2), read-out: MIC): 6.25 µg/mL (≈ 11.3 µM) | MIC ([2]; clinical strain 56 (Table S2), read-out: MIC): 3.12 µg/mL (≈ 5.65 µM) | MIC ([2]; clinical strain 57 (Table S2), read-out: MIC): 50 µg/mL (≈ 90.4 µM) | MIC ([2]; clinical strain 58 (Table S2), read-out: MIC): 3.12 µg/mL (≈ 5.65 µM) | MIC ([2]; clinical strain 59 (Table S2), read-out: MIC): 50 µg/mL (≈ 90.4 µM) | MIC ([2]; clinical strain 60 (Table S2), read-out: MIC): 3.12 µg/mL (≈ 5.65 µM) | MIC ([2]; clinical strain 61 (Table S2), read-out: MIC): 50 µg/mL (≈ 90.4 µM) | MIC ([2]; clinical strain 62 (Table S2), read-out: MIC): 6.25 µg/mL (≈ 11.3 µM) | MIC ([2]; clinical strain 63 (Table S2), read-out: MIC): 1.6 µg/mL (≈ 2.89 µM) | MIC ([2]; clinical strain 64 (Table S2), read-out: MIC): 3.12 µg/mL (≈ 5.65 µM) | MIC ([2]; clinical strain 65 (Table S2), read-out: MIC): 3.12 µg/mL (≈ 5.65 µM) | MIC ([2]; clinical strain 66 (Table S2), read-out: MIC): 50 µg/mL (≈ 90.4 µM) | MIC ([2]; clinical strain 67 (Table S2), read-out: MIC): 50 µg/mL (≈ 90.4 µM) | MIC ([2]; clinical strain 68 (Table S2), read-out: MIC): 50 µg/mL (≈ 90.4 µM) | MIC ([2]; clinical strain 69 (Table S2), read-out: MIC): 1.6 µg/mL (≈ 2.89 µM) | MIC ([2]; clinical strain 70 (Table S2), read-out: MIC): 50 µg/mL (≈ 90.4 µM) | MIC ([2]; clinical strain 71 (Table S2), read-out: MIC): 50 µg/mL (≈ 90.4 µM) | MIC ([2]; clinical strain 72 (Table S2), read-out: MIC): 3.12 µg/mL (≈ 5.65 µM) | MIC ([2]; clinical strain 73 (Table S2), read-out: MIC): 0.8 µg/mL (≈ 1.45 µM) | MIC ([2]; clinical strain 74 (Table S2), read-out: MIC): 50 µg/mL (≈ 90.4 µM) | MIC ([2]; clinical strain 75 (Table S2), read-out: MIC): 6.25 µg/mL (≈ 11.3 µM) | MIC ([2]; clinical strain 76 (Table S2), read-out: MIC): 0.8 µg/mL (≈ 1.45 µM) | MIC ([2]; clinical strain 77 (Table S2), read-out: MIC): 3.12 µg/mL (≈ 5.65 µM) | MIC ([2]; clinical strain 78 (Table S2), read-out: MIC): 6.25 µg/mL (≈ 11.3 µM) | MIC ([2]; clinical strain 79 (Table S2), read-out: MIC): 3.12 µg/mL (≈ 5.65 µM) | MIC ([2]; clinical strain 80 (Table S2), read-out: MIC): 12.5 µg/mL (≈ 22.6 µM) | MIC ([2]; clinical strain 81 (Table S2), read-out: MIC): 6.25 µg/mL (≈ 11.3 µM) | MIC ([2]; mean of MIC values against clinical MDR-SE isolates, read-out: mean MIC): 20.4 µg/mL (≈ 36.9 µM) | MIC50 ([2]; 81 clinical strains, concentration inhibiting growth of 50% clinical isolates): 6.25 µg/mL (≈ 11.3 µM) | MIC90 ([2]; 81 clinical strains, concentration inhibiting growth of 90% of clinical isolates): 50 µg/mL (≈ 90.4 µM) | MIC [3]: 50 µg/mL (≈ 90.4 µM) | %hem (hemolytic activity) ([4]; 200 μM, 1 h, n = 3): 0.48% | lysis of erythrocytes ([4]; concentrations up to 200 μM): None of them caused lysis of erythrocytes

— publication PMC10945555, “Improving Activity of New Arylurea Agents against Multidrug-Resistant and Biofilm-Producing Staphylococcus epidermidis” (ACS Medicinal Chemistry Letters, 2024)
